Assay [1] deals with NIH/Swiss mice. Description: acute food intake assay in overnight-fasted mice, IP injection. To be noted: for FI 30 min ED50 / FI 60 min ED50: food intake. Format: in vivo, mouse. On the procedure: The effect of AFP-6 on food intake was investigated using an acute food intake assay. This assay measured food consumption in lean, group-housed, overnight-fasted NIH/Swiss mice. 12 mice were housed 3 to a cage. The sample compound, in this case AFP-6, was injected IP in mice and food intake was measured during the next 2-hours. Decreased, as well as increased, food intake can be measured. Testing various doses of the compound generated ED50's. The assay was performed as follows: 1. Remove food (water ad libitum) at 5:00 pm the evening before the study. 2. Weigh food pellets (3 pellets/cage). 3. Inject animals intraperitoneally with 200 ul of appropriate solution, t=0. 4. Immediately add pre-weighed food to each cage (away from water bottle spout) and allow animals to feed undisturbed. 5. At 30, 60, and 120 minutes, collect and weigh food. 6. Analyze data. Data points represent mean ±sd of n=12.
Twelve mice were injected IP at t=0 for each dose, 0.3, 1, 3, 10, 30, 100, or 300 nmol/kg of AFP-6 (Amylin Pharmaceuticals, Inc.) (n=12/group). Food was introduced immediately after injection and amount consumed measured at t=30, 60, and 120 min.

Assay [2] deals with T1, CGRP receptors (Homo sapiens, UniProt O60894+Q16602).
T1 construct: membranes prepared from SK-N-MC cells, known to express CGRP receptors; endogenous in cells; host or cells: SK-N-MC cell membranes
Description: CGRP radioligand binding assay (125I-hCGRP, SK-N-MC cell membranes).

Assay [3] has as its target adrenomedullin receptor (Homo sapiens, UniProt O60895+Q16602). Description: adrenomedullin (ADM) receptor binding assay. The note with it: Table 6.
The target of assay [4] is T2, amylin receptors (Rattus norvegicus, UniProt P32214).
T2 construct: This basal forebrain tissue, containing the nucleus accumbens and surrounding regions, was weighed and homogenized; from tissue; host or cells: rat basal forebrain (nucleus accumbens) membranes, male Sprague-Dawley rats
T2 sequence (P32214 25-516): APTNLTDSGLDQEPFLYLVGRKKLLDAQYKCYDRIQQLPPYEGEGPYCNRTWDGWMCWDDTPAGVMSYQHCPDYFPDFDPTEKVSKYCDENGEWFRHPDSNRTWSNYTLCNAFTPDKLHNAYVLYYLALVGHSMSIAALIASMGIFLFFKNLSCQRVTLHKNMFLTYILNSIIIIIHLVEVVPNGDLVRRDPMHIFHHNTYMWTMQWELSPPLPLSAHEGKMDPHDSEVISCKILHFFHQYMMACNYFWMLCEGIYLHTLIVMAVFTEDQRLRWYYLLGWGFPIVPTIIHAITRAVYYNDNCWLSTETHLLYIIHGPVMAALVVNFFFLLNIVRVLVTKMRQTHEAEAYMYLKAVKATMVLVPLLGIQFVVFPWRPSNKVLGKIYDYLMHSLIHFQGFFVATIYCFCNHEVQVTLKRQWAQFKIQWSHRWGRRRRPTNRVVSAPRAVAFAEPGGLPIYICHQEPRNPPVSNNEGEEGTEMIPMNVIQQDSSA
Description: amylin radioligand binding assay (125I-rat amylin, nucleus accumbens membranes). The note with it: Table 6; read-out: Amylin receptor binding. On the procedure: Unlabeled peptides were obtained from BACHEM Inc. (Torrance, Calif.).
Male Sprague-Dawley® rats (200-250) grams were sacrificed by decapitation. Brains were removed and place in cold phosphate-buffered saline (PBS). From the ventral surface, cuts were made rostral to the hypothalamus, bounded laterally by the olfactory tracts and extending at a 45° angle medially from these tracts. […] Membranes were washed three times in fresh buffer by centrifugation for 15 minutes at 48,000×g. The final membrane pellet was resuspended in 20 mM HEPES buffer containing 0.2 mM phenylmethylsulfonyl fluoride (PMSF).
Solutions were incubated for 60 minutes at 2 C. […] Filters were washed immediately before filtration with 5 ml cold PBS, and immediately after filtration with 15 ml cold PBS. […] Competition curves were generated by measuring binding in the presence of 10^−12 to 10^−6 M unlabeled test compound and were analyzed by nonlinear regression using a 4-parameter logistic equation (INPLOT program; […] Software, San Diego, Calif.).

The target of assay [5] is T3, calcitonin receptor (Rattus norvegicus, UniProt P32214).
T3 sequence (P32214 25-516): T2 sequence (P32214 25-516)
Description: calcitonin receptor binding assay (rCalcitonin RBA). The note with it: Table 6; read-out: CT receptor binding.

pIC50: −log10 of the molar value. Where two headings read alike, the source gives them in different places. Bridge positions count the residues as written; N and C are the ends. Ends that are not written are not given here. Peptide text beside a SMILES is read from it.

T1 sequence (Q16602 23-461): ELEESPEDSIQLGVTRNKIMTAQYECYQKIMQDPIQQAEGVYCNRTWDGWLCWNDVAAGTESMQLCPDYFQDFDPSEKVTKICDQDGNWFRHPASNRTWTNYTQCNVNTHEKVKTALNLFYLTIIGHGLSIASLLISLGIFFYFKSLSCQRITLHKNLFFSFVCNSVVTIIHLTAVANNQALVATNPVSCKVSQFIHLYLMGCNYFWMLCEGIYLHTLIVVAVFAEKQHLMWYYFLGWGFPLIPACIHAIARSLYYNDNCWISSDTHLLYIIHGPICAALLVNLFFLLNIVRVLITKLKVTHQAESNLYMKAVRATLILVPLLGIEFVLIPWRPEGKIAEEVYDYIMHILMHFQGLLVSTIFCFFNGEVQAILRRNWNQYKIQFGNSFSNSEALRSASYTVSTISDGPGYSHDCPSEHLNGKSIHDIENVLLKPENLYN
T1 sequence (O60894 27-148): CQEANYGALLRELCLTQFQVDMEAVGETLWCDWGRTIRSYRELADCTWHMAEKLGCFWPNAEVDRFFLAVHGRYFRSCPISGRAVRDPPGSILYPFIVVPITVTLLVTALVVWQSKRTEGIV
Chain of adrenomedullin receptor (Q16602 23-461): as the sequence (Q16602 23-461) above
Chain of adrenomedullin receptor (O60895 43-175): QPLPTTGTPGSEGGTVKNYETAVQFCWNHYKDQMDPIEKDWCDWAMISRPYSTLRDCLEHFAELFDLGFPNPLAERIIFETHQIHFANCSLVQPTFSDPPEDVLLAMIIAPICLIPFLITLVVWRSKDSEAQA

“r/h Adrenomedullin: Amylin Family polypeptide of Table 3; r/h not resolved per value”: in assay [1], the “FI 30 min ED50” value was 18 nmol/kg and the “FI 60 min ED50” value is 13 nmol/kg.
Take “H-VGMVLGTMQVQNLSHRLWQLRQDSAPVDPSSPHSY-NH2 [compound 27]”: the pIC50 in assay [2] (Table 6) was less than 6.00; in assay [3], no more than 6.00; in assay [4], less than 6.00; in assay [5] it was less than 6.00.
Regarding `CC(C)C[C@H](NC(=O)[C@H](CCC(N)=O)NC(=O)[C@H](Cc1c[nH]c2ccccc12)NC(=O)[C@H](CC(C)C)NC(=O)[C@H](CCCNC(=N)N)NC(=O)[C@H](Cc1c[nH]cn1)NC(=O)[C@H](CO)NC(=O)[C@H](CC(C)C)NC(=O)[C@H](CC(N)=O)NC(=O)[C@H](CCC(N)=O)NC(=O)[C@@H](NC(=O)[C@H](CCC(N)=O)NC(=O)[C@@H]1CSSC[C@H](NC(=O)CN)C(=O)N[C@@H](CC(N)=O)C(=O)N[C@@H]([C@@H](C)O)C(=O)N[C@@H](C)C(=O)N[C@@H]([C@@H](C)O)C(=O)N1)C(C)C)C(=O)N[C@@H](CCCNC(=N)N)C(=O)N[C@@H](CCC(N)=O)C(=O)N[C@@H](CC(=O)O)C(=O)N[C@@H](CO)C(=O)N[C@@H](C)C(=O)N1CCC[C@H]1C(=O)N[C@H](C(=O)N[C@@H](CC(=O)O)C(=O)N1CCC[C@H]1C(=O)N[C@@H](CO)C(=O)N[C@@H](CO)C(=O)N1CCC[C@H]1C(=O)N[C@@H](Cc1c[nH]cn1)C(=O)N[C@@H](CO)C(=O)N[C@@H](Cc1ccc(O)cc1)C(N)=O)C(C)C` [compound 31] (H-GCNTATCQVQNLSHRLWQLRQDSAPVDPSSPHSY-NH2; disulfide 2-7 (inferred); N-terminus assumed), the pIC50 in assay [2] (Table 6) is 7.74; in assay [3], no more than 6.00; in assay [4] it was 7.92; in assay [5], 7.29.
For `CC(C)C[C@@H]1NC(=O)[C@H](CC(N)=O)NC(=O)CNC(=O)[C@@H](NC(=O)CN)CSSC[C@@H](C(=O)N[C@@H](CCC(N)=O)C(=O)N[C@H](C(=O)N[C@@H](CCC(N)=O)C(=O)N[C@@H](CC(N)=O)C(=O)N[C@@H](CC(C)C)C(=O)N[C@@H](CO)C(=O)N[C@@H](Cc2c[nH]cn2)C(=O)N[C@@H](CCCNC(=N)N)C(=O)N[C@@H](CC(C)C)C(=O)N[C@@H](Cc2c[nH]c3ccccc23)C(=O)N[C@@H](CCC(N)=O)C(=O)N[C@@H](CC(C)C)C(=O)N[C@@H](CCCNC(=N)N)C(=O)N[C@@H](CCC(N)=O)C(=O)N[C@@H](CC(=O)O)C(=O)N[C@@H](CO)C(=O)N[C@@H](C)C(=O)N2CCC[C@H]2C(=O)N[C@H](C(=O)N[C@@H](CCC(=O)O)C(=O)N2CCC[C@H]2C(=O)N[C@@H](CO)C(=O)N[C@@H](CO)C(=O)N2CCC[C@H]2C(=O)N[C@@H](Cc2c[nH]cn2)C(=O)N[C@@H](CO)C(=O)N[C@@H](Cc2ccc(O)cc2)C(N)=O)C(C)C)C(C)C)NC(=O)[C@H]([C@@H](C)O)NC(=O)[C@H](CO)NC1=O` [compound 39] (H-GCGNLSTCQVQNLSHRLWQLRQDSAPVEPSSPHSY-NH2; disulfide 2-8 (inferred); N-terminus assumed), the pIC50 was less than 6.00 in assay [2] (Table 6), no more than 6.00 in assay [3] and 7.51 in assay [5].
“VQNLSHRLWQLMGPAGRQDSAPVDPSSPHSY-NH2 [compound 14]”: the pIC50 was less than 6.00 in assay [2] (Table 6), 7.23 in assay [3], less than 6.00 in assay [4] and less than 6.00 in assay [5].
With “Rat calcitonin: rat calcitonin, reference peptide in the food intake assay (CGNLSTCMLGTYTQDLNKFHTFPQTSIGVGAP; ends and bridges not checked; cysteine pairing not given here; UniProt P01257 85-116, looked up)”, the “inhibition of food intake” value in assay [1] (0.63 mg/kg, mice, not significant) is reported as 16%.
In the case of `CC(C)C[C@H](NC(=O)[C@H](CCC(N)=O)NC(=O)[C@H](Cc1c[nH]c2ccccc12)NC(=O)[C@H](CC(C)C)NC(=O)[C@H](CCCNC(=N)N)NC(=O)[C@H](Cc1c[nH]cn1)NC(=O)[C@H](CO)NC(=O)[C@H](CC(C)C)NC(=O)[C@H](CC(N)=O)NC(=O)[C@H](CCC(N)=O)NC(=O)[C@@H](NC(=O)[C@H](CCC(N)=O)NC(=O)[C@@H]1CSSC[C@H](NC(=O)CN)C(=O)N[C@@H](C(C)C)C(=O)N[C@@H](CC(C)C)C(=O)NCC(=O)N[C@@H]([C@@H](C)O)C(=O)N1)C(C)C)C(=O)N[C@@H](CCCNC(=N)N)C(=O)N[C@@H](CCC(N)=O)C(=O)N[C@@H](CCC(=O)O)C(=O)N[C@@H](CO)C(=O)N[C@@H](C)C(=O)N1CCC[C@H]1C(=O)N[C@H](C(=O)N[C@@H](CCC(=O)O)C(=O)N1CCC[C@H]1C(=O)N[C@@H](CO)C(=O)N[C@@H](CO)C(=O)N1CCC[C@H]1C(=O)N[C@@H](Cc1c[nH]cn1)C(=O)N[C@@H](CO)C(=O)N[C@@H](Cc1ccc(O)cc1)C(N)=O)C(C)C` [compound 40] (H-GCVLGTCQVQNLSHRLWQLRQESAPVEPSSPHSY-NH2; disulfide 2-7), the pIC50 in assay [2] (Table 6) is less than 6.00; in assay [3], no more than 6.00; in assay [4], less than 6.00; in assay [5], less than 6.00.
Turning to “r/h Amylin: Amylin Family polypeptide of Table 3; r/h not resolved per value (KCNTATCATQRLANFLVHSSNNFGAILSSTNVGSNTY; Islet amyloid polypeptide; UniProt P10997 34-70, looked up)”, the pIC50 in assay [2] (read-out: IC50 CGRP RBA, Table 3) was 7.92. For the same compound, in assay [1], the “FI 30 min ED50” value is 11 to 25 nmol/kg and the “FI 60 min ED50” value was 25 to 33 nmol/kg.
With “H-RVGCGNLSTCQVQNLSHRLWQLMGPAGRQDSAPVDPSSPHSY-NH2 (disulfide 4-10 (inferred)) [compound 22]”, the pIC50 in assay [2] (Table 6) was 7.46; in assay [3], 7.72; in assay [4], 8.62; in assay [5], 8.14.
Regarding `CC(C)C[C@H](NC(=O)[C@H](CCC(N)=O)NC(=O)[C@H](Cc1c[nH]c2ccccc12)NC(=O)[C@H](CC(C)C)NC(=O)[C@H](CCCNC(=N)N)NC(=O)[C@H](Cc1c[nH]cn1)NC(=O)[C@H](CO)NC(=O)[C@H](CC(C)C)NC(=O)[C@H](CC(N)=O)NC(=O)[C@H](CCC(N)=O)NC(=O)[C@@H](NC(=O)[C@H](CCC(N)=O)NC(=O)[C@@H]1CSSC[C@H](NC(=O)[C@@H](N)C(C)C)C(=O)N[C@@H](CC(N)=O)C(=O)N[C@@H]([C@@H](C)O)C(=O)N[C@@H](C)C(=O)N[C@@H]([C@@H](C)O)C(=O)N1)C(C)C)C(=O)N[C@@H](CCCNC(=N)N)C(=O)N[C@@H](CCC(N)=O)C(=O)N[C@@H](CC(=O)O)C(=O)N[C@@H](CO)C(=O)N[C@@H](C)C(=O)N1CCC[C@H]1C(=O)N[C@H](C(=O)N[C@@H](CC(=O)O)C(=O)N1CCC[C@H]1C(=O)N[C@@H](CO)C(=O)N[C@@H](CO)C(=O)N1CCC[C@H]1C(=O)N[C@@H](Cc1c[nH]cn1)C(=O)N[C@@H](CO)C(=O)N[C@@H](Cc1ccc(O)cc1)C(N)=O)C(C)C` [compound 30] (H-VCNTATCQVQNLSHRLWQLRQDSAPVDPSSPHSY-NH2; disulfide 2-7 (inferred)), the pIC50 in assay [2] (Table 6) was 7.43; in assay [3], no more than 6.00; in assay [5], 6.89.

These data come from patent publication US7928060B2, “Amylin family polypeptide-6 (AFP-6) analogs and methods of making and using them” (Amylin Pharmaceuticals, Inc., priority 2004, dated 2011).
